Key:
ES2 cells = test: Reactive oxygen species, Amplex Red/HRP; conditions: 12 h
[1] = system: ES2-luc human ovarian tumor; test: ES2-luc xenograft model, nude mice; type: in vivo, mouse; conditions: 10 mg/kg IP every 3 days
Experimental: Female Nude mice were inoculated IP with 1x10^6 ES2-luc in 100 μL PBS. At day 3, mice were imaged for basal level luminescence activity with a Xenogen IVIS 200 after IP injection with luciferin (0.3 mg in 100 μL water). Mice were randomized into groups and treated IP with compounds or vehicle (25% (w/v) β-Hydroxypropylcyclodextrin in water), and imaged again on days indicated.
Briefly mice were injected IP with ES2-luc cells, as ovarian cancer primarily spreads through the peritoneum, and it is the origin of primary peritoneal cancer. After four days, these mice were injected IP with luciferin and bioluminescence imaged by IVIS imager as a surrogate of tumor burden. […] Bioluminescent imaging was performed by IVIS 12 and 21 days later.
A-C) Female nude mice were inoculated IP with ES2-luc cells, a human ovarian cancer line expressing luciferase. […] The IP tumor tissue and electroporated normal muscle tissue, being spatially distinct, were identified with separate regions of interest (ROI) after simultaneous imaging with IVIS.

[2] = Plasma stability, human EDTA plasma; type: in vitro ADME; conditions: for % Drug Remaining, Plasma (Human EDTA): 10 μM, 37°C
[3] = Tissue distribution in CD1 mice, LC-MS/MS; type: in vivo, mouse; conditions: 40 mg/kg IV
Experimental: Tissue homogenates were prepared at a concentration of 200 mg/mL in PBS. After vortex-mixing and centrifuging for 5 min at 2700 rpm. […] Mobile phase A was water containing 0.1% formic acid, and mobile phase B was acetonitrile containing 0.1% formic acid. The gradient started with mobile phase B at 20% and was held at 20% for 0.5 min with a flow rate of 0.3 mL/min, then increased to 100% over 0.5 minutes and held for 2.0 min, and finally returned back to 20% mobile phase B and allowed to equilibrate until 4.1min. […] The lower limit of quantitation (LLOQ) in plasma was 10 ng/mL.
A) ES2 cells stably transduced with the 4UbFL reporter plasmid were treated with compounds at indicated doses for 4 h. The cells were then washed, lysed and their luminescence measured by a luminometer after addition of luciferin. B) Female CD1 mice electroporated with 4UbFL plasmid in their leg muscle. After 48 h, the mice were injected with luciferin, imaged by IVIS for their basal bioluminescence and randomized into two groups of five. […] D) Up284 tissue distribution. […] Up284 levels in tissue samples were analyzed by HPLC. E) Up284 pharmacokinetics. […] Blood was collected at indicated time points thereafter and analyzed for Up284 levels by HPLC.
Up284 levels were analyzed in all major tissues (brain, colon, heart, kidney, liver, lung and spleen) by liquid chromatography–mass spectrometry (LC–MS/MS).

cellular DUB enzymes = test: Total cellular DUB activity, Ub-AMC cleavage, SKOV3 cells; conditions: 5 μM, 1 h

N#Cc1ccc(/C=C2/C(=O)/C(=C/c3ccc(C#N)cc3)C23CCNCC3)cc1 [Up284]
reactive oxygen species (ES2 cells): elevated levels of reactive oxygen species | ES2-luc xenograft tumor burden (bioluminescence) vs vehicle ([1]; days 12 and 21, p = 0.0002): significantly reduced | overall survival vs vehicle ([1]; p = 0.005): increased overall survival | % Drug Remaining, Plasma (Human EDTA) ([2]; 0 min): 100% | % Drug Remaining, Plasma (Human EDTA) ([2]; 30 min): 100% | % Drug Remaining, Plasma (Human EDTA) ([2]; 60 min): 90% | degradation in human plasma ([2]; after incubating for 1 hour): < 10% | plasma level at 24 h [3]: low | tissue levels (brain, colon, heart, kidney, liver, lung and spleen) ([3]; 24 h): accumulated in all the tissues, particularly the lungs | total lysate DUB enzymatic activity (Ub-AMC) (cellular DUB enzymes): No reduction

From PMC10266688 (PLOS ONE, 2023)
